Entries after “also recorded” stand apart in the source; their conditions may differ.
Key:
[1] = system: CT26 (colorectal) tumor cells; experiment: CT26 syngeneic mouse tumor model; assay type: in vivo, BALB/c mice; settings: CT26 tumors; result in words
Method: (§1) In vivo studies were performed using 8-10 week old BALB/cAnNCrl mice (Charles River UK) or C57BL/6. Mice were housed in an AstraZeneca vivarium with access to food and water ad libidum and were cared for daily by trained personnel. Mice were acclimatized to the vivarium conditions for a week and handled according to the Home Office Animals Scientific Procedures Act, 1986, UK. All animal work was carried out under a Home Office approved project licence (PPL P49077891) and […] (RTx studies) as well as according to the institutional guidelines. BALB/c mice were subcutaneously implanted with 0.5e6 CT26 (colorectal) tumor cells. […] Tumors were measured with callipers three times a week, starting from day-5. […]
(§2) All in vivo data were collated in the Excel spreadsheets and transferred to GraphPad Prism 9.00 (GraphPad Software Inc.) for graphical representation and statistical analysis. After outlier identification and Shapiro-Wilk test for normality distribution, statistical significance was determined by One-way ANOVA followed by Dunnett's multiple comparison for comparisons of more than two groups if data were normally distributed. […] Survival studies were analysed with a log rank (Mantel-Cox) test, comparing only two survival curves at a time. […]

[2] = system: MCA205 (fibrosarcoma) tumor cells; experiment: MCA205 syngeneic mouse tumor model; assay type: in vivo, C57BL/6 mice; settings: MCA205 tumors; result in words
Method: as §1, §2

CT26 transcriptome = experiment: RNAseq of treated CT26 tumors; assay type: in vivo, Mus musculus
Method: Tumor tissue was flash-frozen in liquid nitrogen and stored at −80° C. at the time of collection in the animal unit and was sent to Novogene on dry ice. Tissue processing and RNA extraction was carried out by Novogene Co. by using the QIAGEN RNeasy Plus Universal kit (Qiagen, Cat. No. 73404), according to the manufacturer's protocol. Briefly, tissue samples were homogenized in QIAzol Lysis Reagent. The homogenate was then separated into aqueous and organic phases by centrifugation after addition of gDNA eliminator solution and chloroform. The upper, aqueous phase containing RNA was collected, and RNA purified using RNeasy spin columns. RNA quality check (QC) was performed by 1% Agarose gel electrophoresis, amount and purity were measured by Nanodrop, and RNA […] Number (RIN) was obtained by Bioanalyzer Agilent2100.
NEBNextR Ultra RNA library prep kit (Cat. No. E7530L) was used for library preparation for sequencing. Samples were sequenced using Illumina PE150 (50M reads/sample) bulk RNA-seq and downstream bioinformatic analysis was performed.
Reads were mapped to Mus musculus genome (mm10) genome using Star (Dobin A et al., Bioinformatics 2013; 29:15-21). Uniquely mapped reads were counted using htseq-count (Putri GH et al., Bioinformatics 2022; 38:2943-5). DESeq2 (Love M I et al., Genome Biol 2014; 15) was used to normalize counts with size factors and identify differentially expressed genes across conditions with a threshold of abs (log2FC)>1 and adjusted p value<0.05.
(§3) Gene set enrichment analysis was performed using R package ‘fGSEA’ (Korotkevich G et al., bioRxiv 2021; 060012) using hallmark gene sets from mouse MSigDB (Subramanian A. et al., Proc Natl Acad Sci USA 2005; 102:15545-50). Enrichment p-values were calculated as described in Korotkevich G et al., bioRxiv 2021; 060012 and p-values were adjusted using Benjamini-Hochberg method. Gene ontology Biological Process enrichments were identified using R package topGO (Bioconductor-topGO) with adj-pval<0.05. KEGG pathway enrichment analysis was conducted using R package clusterProfiler (Wu T. et al., The Innovation 2021; 2:100141). MCPCounter tool (Becht E. et al., Genome Biol 2016; 17:1-20) was used to estimate immune cell abundances for each sample and condition using immune gene signatures within MCPCounter.

[3] = system: adenosine pathway metabolites; experiment: Mass Spectrometry Imaging of CT26 tumors; assay type: in vivo, mouse
Method: Tumors were snap frozen in liquid nitrogen immediately after resection and the frozen tissues were embedded in a HPMC/PVP hydrogel as previously described (Dannhorn A. et al., Anal Chem 2020; 92:11080-8). Sectioning was performed on a CM3050 S cryostat (Leica Biosystems, Nussloch, Germany) at a section thickness of 10 um and the tissue sections were immediately thaw mounted and dried under a stream of nitrogen and sealed in vacuum pouches to preserve the metabolic integrity of the sections. Tissue sections for DESI-MSI and IMC were thaw-mounted onto Superfrost microscope slides (VWR, Cat. No. 630-2863), whilst sections prepared for MALDI-MSI were thaw mounted onto conductive indium tin oxide (ITO) coated slides (Bruker Daltonik, Cat. No. 8237001). Polyvinylpyrrolidone (PVP) and (Hydroxypropyl) methylcellulose (HPMC) (purchased from Merck (Cat. No.PVP360; H8384). Methanol (Cat. No. 15624680), iso-pentane (Cat. No. 15692830) and isopropyl alcohol (Cat. No. 10674732) were obtained from Fisher Scientific.
DESI-MSI analysis was performed on a Q-Exactive mass spectrometer (Thermo Scientific, Bremen, Germany) equipped with an automated 2D-DESI ion source (Prosolia Inc., Indianapolis, IN, USA) operated in negative ion mode, covering the applicable mass range up to m/z of 1000, with a nominal mass resolution of 70,000. […]

[4] = system: immune cell populations in the treated CT26 tumors; experiment: MCP-Counter estimate of immune cell abundance from RNAseq; design: species or system mouse; settings: MCP counter on RNAseq
Method: as §3
Next we checked if the gene perturbation at this scale also led to changes in the enumeration of the cell populations. For this we estimated the abundance of immune cell populations in the treated CT26 tumors, using the MCP-Counter tool (Becht E, et al., Genome Biol 2016; 17:1-20).

[5] = CT26 tumors vs control, abs(log2FC)>1, adjusted p<0.05
[6] = CT26 tumors, component added to the other parts of aCD73+aPD-L1+5FU+OHP
[7] = component within aCD73+aPD-L1+5FU+OHP, not modulated in other iterations

5-fluorouracil (5FU)+oxaliplatin (OHP) [5FU+OHP]
tumor growth inhibition / efficacy [1]: supressed tumor growth rates; also recorded: retarded tumor growth in a proportion of drug recipients
tumor growth inhibition / efficacy [2]: supressed tumor growth rates; also recorded: retarded tumor growth in a proportion of drug recipients
Down-regulated genes (CT26 transcriptome; [5]): 158 genes
Up-regulated genes (CT26 transcriptome; [5]): 277 genes
differentially expressed (DE) genes (CT26 transcriptome; [5]): 435 DE DE genes
Up-regulated genes (CT26 transcriptome; CT26 tumors vs control, abs(log2FC)>1, adjusted p<0.05, listed as FF): 277 Up- genes
genes downregulated when the named component is included in the combination (CT26 transcriptome; [6]): IL-10, IL-1b, CXCL2, S100A8
genes upregulated or notably influenced when the named component is included in the combination (CT26 transcriptome; [6]): Interferon-gamma, TRIM6, CCL17, Granzyme B, GDF15, perforin and Lag3
individual genes downregulated (CT26 transcriptome; CT26 tumors, gene names): CXCL2 expression was reduced; also recorded: CXCL2, IL-1b, CD103 and XCR1
individual genes upregulated (CT26 transcriptome; CT26 tumors, gene names): CCL3, 4, 8, 17, CXCL10, GDF15, CD8a, IFNγ, Perforin, Granzyme, Lag-3 and PD-1; also recorded: IFN-Y, CCL3, CCL8, Lag-3 and granzyme B; also recorded: elevated ARORA2 gene expression
DE genes due to addition of the named component (CT26 transcriptome; aCD73+aPD-L1+5FU+OHP vs the combination without the component, Abs(log2FC)>=1, Adj-pval<0.05): 546 DE genes
genes uniquely downregulated by the named component (CT26 transcriptome; [7]): 122 genes
genes uniquely upregulated by the named component (CT26 transcriptome; [7]): 360 genes
ATP abundance (MSI) ([3]; compared to control treated tumors): modest increase
AMP abundance (MSI) ([3]; compared to other treatment groups): modest increase
abundance of immune cell populations in tumor [4]: increased lymphocyte representation
